Key:
[1] = DPPH radical scavenging assay; assay type: biochemical; settings: 0.2 mM DPPH in ethanol, 30 minutes in dark at room temperature, absorbance at 517 nm; read-out: IC50 value against DPPH radicals
Method: DPPH is a stable free radical. When a free radical scavenger is present, light absorption of DPPH will be reduced when the single electron is scavenged, which allows to evaluate free radical scavenging ability of the substance and accordingly determine antioxidant ability thereof. The DPPH radical scavenging ability of the dihydrofuran chalcone was measured through the DPPH radical scavenging assay, so as to evaluate the antioxidant ability of the compound. The assay comprised the following steps: 1,1-Diphenyl-2-picrylhydrazyl (DPPH) was dissolved in absolute ethanol to obtain a solution with a concentration of 0.2 mM. The dihydrofuran chalcone was dissolved in absolute ethanol. 80 μL of the ethanol solution of dihydrofuran chalcone and 160 μL of the 0.2 mM DPPH ethanol solution were mixed and the mixture was placed in dark at room temperature for 30 minutes. Then, light absorbance at 517 nm was measured using a microplate reader (SpectraMax 190, Molecular Devices, USA), and Vc was employed as a positive control.

[2] = Solubility in methanol (structure identification); assay type: physicochemical

| Structure (SMILES) | IC50 [1] [µM] | solubility in methanol [2] |
| --- | --- | --- |
| O=C1O[C@H]([C@@H](O)CO)C(O)=C1O [Vc, vitamin C] | 100 |  |
| CC(C)(O)C1Cc2c(O)ccc(C(=O)/C=C/c3ccc(O)cc3O)c2O1 (centres unmarked) [compound 1, dihydrofuran chalcone] |  | easily soluble |

— patent US11161829B1, “Dihydrofuran chalcone compound and preparation method thereof” (SOUTH CHINA BOTANICAL GARDEN, CHINESE ACADEMY OF SCIENCES, priority 2018, dated 2021)
